Key:
Assay in all cases: filter binding assay of [3H] acetyl-CoA to SphK1
SphK1 R185A = biological target: T1, SphK1 R185A (Homo sapiens, UniProt Q9NYA1, R185A)
T1 construct: His (N); made in house
From the text: (§1) Single point mutations in SphK1 (R56A, R57A, R24A, R185A, D178A, and F192A) and COX2 (S565A, N181A, T564A, and S567A) were generated using the In-Fusion Cloning Kits (Clontech) and ORF cDNA expression plasmids of human SphK1 and COX2 gene (Sino Biological Inc, HG15679-NH and HG12036-NH), according to the manufacturer’s instructions. The forward and reverse primers described in Supplementary Table 4. The SphK1 WT, SphK1 mutants, COX2 WT, and COX2 mutant plasmids were transformed in the One shot TOP 10 competent cell (Invitrogen). The bacteria were grown in Luria-Bertani (LB, Invitrogen) plates supplemented with 50 μg ml^−1 kanamycin (Sigma-Aldrich) at 37 °C. The bacterial cell pellets were resuspended in lysis buffer containing 20 mM sodium phosphate (GE Healthcare), 500 mM NaCl (GE Healthcare), 20 mM imidazole (pH 7.4) (GE Healthcare), 0.2 mg ml^−1 lysozyme (Sigma-Aldrich), 20 μg ml^−1 DNase I (Roche), 1 mM MgCl2 (Sigma-Aldrich), and 1 mM PMSF (Sigma-Aldrich) before being lysed by sonication and clarified by centrifugation at 15,493×g for 10 min. Proteins were purified from the soluble fraction using His-Spin Trap columns (GE Healthcare) and the binding and acetylation assays were performed.
(§2) Briefly, SphK1 WT and mutant enzymes (1 mU) were resuspended in 100 μl reaction buffer (20 mM HEPES; pH 7.4, 50 mM NaCl, 10 mM MgCl2, 1 mM EGTA, 0.02% Triton-X100, and 100 μM sphingosine, all from Sigma-Aldrich). […] Briefly, COX2 WT and mutant enzymes (1 mU) were resuspended in 100 μl reaction buffer (20 mM HEPES; pH 7.4, 50 mM NaCl, 10 mM MgCl2, 1 mM EGTA, and 0.02% Triton-X100, all from Sigma-Aldrich). Reactions were initiated by adding [^14C] N-AS (1–200 μM (0.1–20 μCi), ARC UK Ltd, ARC-1024) and incubated at 37 °C for 1 h. The reactions were terminated by adding 100 μl of ice-cold reaction buffer containing 5 mM cold N-AS and immediately filtered through P30 filtermat (Perkin-Elmer), followed by five washes.
(§3) The binding velocity was plotted and the Kcat and KM values were calculated from the Michaelis-Menten analysis using the Sigma-plot program (ver 10.0, Systat software Inc.).

SphK1 R57A = biological target: T2, SphK1 R57A (Homo sapiens, UniProt Q9NYA1, R57A)
T2 construct: His (N); made in house
From the text: as §1, §2, §3

SphK1 R56A = biological target: T3, SphK1 R56A (Homo sapiens, UniProt Q9NYA1, R56A)
T3 construct: His (N); made in house
From the text: as §1, §2, §3

SphK1 R24A = biological target: T4, SphK1 R24A (Homo sapiens, UniProt Q9NYA1, R24A)
T4 construct: His (N); made in house
From the text: as §1, §2, §3

[1] = read-out: KM of acetyl-CoA binding to SphK1

T4 sequence (Q9NYA1 whole entry R24A): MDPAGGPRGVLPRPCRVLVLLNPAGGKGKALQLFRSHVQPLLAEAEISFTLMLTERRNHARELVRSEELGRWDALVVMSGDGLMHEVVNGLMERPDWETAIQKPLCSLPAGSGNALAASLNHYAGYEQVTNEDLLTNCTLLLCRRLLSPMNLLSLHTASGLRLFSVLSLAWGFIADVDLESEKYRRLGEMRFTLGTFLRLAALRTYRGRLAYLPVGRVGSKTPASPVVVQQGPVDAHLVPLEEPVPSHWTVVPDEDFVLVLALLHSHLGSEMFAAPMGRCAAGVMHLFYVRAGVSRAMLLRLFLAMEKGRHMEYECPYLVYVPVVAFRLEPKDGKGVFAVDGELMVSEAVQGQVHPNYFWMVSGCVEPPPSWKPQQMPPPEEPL
T1 sequence (Q9NYA1 whole entry R185A): as the sequence (Q9NYA1 whole entry R24A) above, with A24R, R185A counted along it
T2 sequence (Q9NYA1 whole entry R57A): as the sequence (Q9NYA1 whole entry R24A) above, with A24R, R57A counted along it
T3 sequence (Q9NYA1 whole entry R56A): as the sequence (Q9NYA1 whole entry R24A) above, with A24R, R56A counted along it

CC(=O)SCCNC(=O)CCNC(=O)[C@H](O)C(C)(C)COP(=O)(O)OP(=O)(O)OC[C@H]1O[C@@H](n2cnc3c(N)ncnc32)[C@H](O)[C@@H]1OP(=O)(O)O [Acetyl-CoA, acetyl-CoA]
Kcat of acetyl-CoA binding to SphK1 (SphK1 R185A): 0.000237 s⁻¹ | Km (SphK1 R185A; [1]): 22.8 µM | Kcat of acetyl-CoA binding to SphK1 (SphK1 R57A): 0.000305 s⁻¹ | Km (SphK1 R57A; [1]): 15.4 µM | Kcat of acetyl-CoA binding to SphK1 (SphK1 R56A): 0.000203 s⁻¹ | Km (SphK1 R56A; [1]): 40.4 µM | Kcat of acetyl-CoA binding to SphK1 (SphK1 R24A): 0.000273 s⁻¹ | Km (SphK1 R24A; [1]): 14.4 µM

Source: article PMC7217877, “N-AS-triggered SPMs are direct regulators of microglia in a model of Alzheimer’s disease” (Nature Communications, 2020)
